Source: patent US5698522A, “6-position modified decapeptide LHRH antagonists” (Abbott Laboratories, priority 1995, dated 1997)
*1 amine or outer side, *2 acyl side, *3 side chain or, on linkers, in order; H or OH if unused. Where a SMILES comes first, the peptide text is derived from it. Side-chain parts run from the residue outwards. [ ]: non-standard residue; d: D form. The star is where a group is joined. Shikimoyl = O=C(C1=C[C@@H](O)[C@@H](O)[C@H](O)C1)*; X5 = O=C(NCCCN*)C1=C[C@@H](O)[C@@H](O)[C@H](O)C1; dPhe(4-Cl) = N[C@H](Cc1ccc(Cl)cc1)C(=O)O; d2Nal = N[C@H](Cc1ccc2ccccc2c1)C(=O)O; Lys(iPr) = CC(C)NCCCC[C@H](N)C(=O)O; NMeY = CN[C@@H](Cc1ccc(O)cc1)C(=O)O; d3Pal = N[C@H](Cc1cccnc1)C(=O)O; Picolinoyl = O=C(c1ccccn1)*; X1 = O=C(c1cc2ccccc2cc1O)*; 2Furoyl = O=C(c1ccco1)*; CO = O=C([*:1])[*:2]; X2 = O=C(c1ccoc1)*; azaGly = NNC(=O)O; Sar = CNCC(=O)O

Target: T1, LHRH receptor (Rattus norvegicus, UniProt P30969)
T1 construct: endogenous in cells
T1 sequence (P30969 1-327): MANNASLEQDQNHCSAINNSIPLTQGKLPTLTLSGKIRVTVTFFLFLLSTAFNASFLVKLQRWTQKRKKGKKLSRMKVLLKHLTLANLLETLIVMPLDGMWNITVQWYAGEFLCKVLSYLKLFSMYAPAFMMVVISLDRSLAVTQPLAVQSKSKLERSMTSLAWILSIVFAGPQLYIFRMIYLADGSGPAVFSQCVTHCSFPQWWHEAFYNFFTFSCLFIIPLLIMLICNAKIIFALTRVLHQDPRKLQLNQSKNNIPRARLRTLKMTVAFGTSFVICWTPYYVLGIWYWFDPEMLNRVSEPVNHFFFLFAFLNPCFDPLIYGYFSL
Test: in vitro LHRH antagonist potency (pA2) against the agonist leuprolide
Assay type: cell-based
Settings: negative logarithm of the antagonist concentration which shifts the response curve produced by the agonist leuprolide to two-fold higher concentration
Outline: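 Functional antagonism against the agonist leuprolide. pA2 is the negative log of antagonist concentration that shifts the leuprolide response curve to twofold higher concentration.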

Row | SMILES | Kb [nM]
1 | CC(=O)N[C@H](Cc1ccc2ccccc2c1)C(=O)N[C@H](Cc1ccc(Cl)cc1)C(=O)N[C@H](Cc1cccnc1)C(=O)N[C@@H](CO)C(=O)N(C)[C@@H](Cc1ccc(O)cc1)C(=O)N[C@H](CCCCNC(=O)NNC(=O)c1cc2ccccc2cc1O)C(=O)N[C@@H](CC(C)C)C(=O)N[C@@H](CCCCNC(C)C)C(=O)N1CCC[C@H]1C(=O)N[C@H](C)C(N)=O [Example 5d, NAc-D2Nal^1 -D4ClPhe^2 -D3Pal^3 -Ser^4 -NMeTyr^5 -DLys[N-epsilon-Azagly-(3-OH-2-Naphthoyl)]^6 -Leu^7 -Lys(N-epsilon-Isopropyl)^8 -Pro^9 -DAla^10 NH2] (Ac-[d2Nal][dPhe(4-Cl)][d3Pal]S[NMeY][dK]([azaGly-X1])L[Lys(iPr)]P[dA]-NH2) | 0.055
2 | CC(=O)N[C@H](Cc1ccc2ccccc2c1)C(=O)N[C@H](Cc1ccc(Cl)cc1)C(=O)N[C@H](Cc1cccnc1)C(=O)N[C@@H](CO)C(=O)N(C)[C@@H](Cc1ccc(O)cc1)C(=O)N[C@H](CCCCNC(=O)[C@H](NC(=O)C1=C[C@@H](O)[C@@H](O)[C@H](O)C1)[C@H](C)O)C(=O)N[C@@H](CC(C)C)C(=O)N[C@@H](CCCNC(=N)N)C(=O)N1CCC[C@H]1C(=O)N[C@H](C)C(N)=O [Example 48c, NAc-D2Nal^1 -D4ClPhe^2 -D3Pal^3 -Ser^4 -NMeTyr^5 -DLys(N-epsilon-D-Thr-Shikimyl)^6 -Leu^7 -Arg^8 -Pro^9 -DAla^10 NH2] (Ac-[d2Nal][dPhe(4-Cl)][d3Pal]S[NMeY][dK]([dT-Shikimoyl])LRP[dA]-NH2) | 0.0288
3 | CC(=O)N[C@H](Cc1ccc2ccccc2c1)C(=O)N[C@H](Cc1ccc(Cl)cc1)C(=O)N[C@H](Cc1cccnc1)C(=O)N[C@@H](CO)C(=O)N(C)[C@@H](Cc1ccc(O)cc1)C(=O)N[C@H](CCCCNC(=O)NNC(=O)c1ccco1)C(=O)N[C@@H](CC(C)C)C(=O)N[C@@H](CCCNC(=N)N)C(=O)N1CCC[C@H]1C(=O)N[C@H](C)C(N)=O [Example 37a, NAc-D2Nal^1 -D4ClPhe^2 -D3Pal^3 -Ser^4 -NMeTyr^5 -DLys(N-epsilon-Azagly-2-Furoyl)^6 -Leu^7 -Arg^8 -Pro^9 -DAla^10 NH2] (Ac-[d2Nal][dPhe(4-Cl)][d3Pal]S[NMeY][dK]([azaGly-2Furoyl])LRP[dA]-NH2) | 0.0166
4 | CC(=O)N[C@H](Cc1ccc2ccccc2c1)C(=O)N[C@H](Cc1ccc(Cl)cc1)C(=O)N[C@H](Cc1cccnc1)C(=O)N[C@@H](CO)C(=O)N(C)[C@@H](Cc1ccc(O)cc1)C(=O)N[C@H](CCCCNC(=O)CN(C)C(=O)C1=C[C@@H](O)[C@@H](O)[C@H](O)C1)C(=O)N[C@@H](CC(C)C)C(=O)N[C@@H](CCCNC(=N)N)C(=O)N1CCC[C@H]1C(=O)N[C@H](C)C(N)=O [Example 48f, NAc-D2Nal^1 -D4ClPhe^2 -D3Pal^3 -Ser^4 -NMeTyr^5 -DLys(N-epsilon-Sar-Shikimyl)^6 -Leu^7 -Arg^8 -Pro^9 -DAla^10 NH2] (Ac-[d2Nal][dPhe(4-Cl)][d3Pal]S[NMeY][dK]([Sar-Shikimoyl])LRP[dA]-NH2) | 0.0126
5 | CC(=O)N[C@H](Cc1ccc2ccccc2c1)C(=O)N[C@H](Cc1ccc(Cl)cc1)C(=O)N[C@H](Cc1cccnc1)C(=O)N[C@@H](CO)C(=O)N(C)[C@@H](Cc1ccc(O)cc1)C(=O)N[C@H](CCCCNC(=O)CNC(=O)c1ccccn1)C(=O)N[C@@H](CC(C)C)C(=O)N[C@@H](CCCNC(=N)N)C(=O)N1CCC[C@H]1C(=O)N[C@H](C)C(N)=O [Example 48a, NAc-D2Nal^1 -D4ClPhe^2 -D3Pal^3 -Ser^4 -NMeTyr^5 -DLys(N-epsilon-Gly-Picolinyl)^6 -Leu^7 -Arg^8 -Pro^9 -DAla^10 NH2] (Ac-[d2Nal][dPhe(4-Cl)][d3Pal]S[NMeY][dK]([Gly-Picolinoyl])LRP[dA]-NH2) | 0.00794
6 | CC(=O)N[C@H](Cc1ccc2ccccc2c1)C(=O)N[C@H](Cc1ccc(Cl)cc1)C(=O)N[C@H](Cc1cccnc1)C(=O)N[C@@H](CO)C(=O)N(C)[C@@H](Cc1ccc(O)cc1)C(=O)N[C@H](CCCCNC(=O)CNC(=O)c1ccco1)C(=O)N[C@@H](CC(C)C)C(=O)N[C@@H](CCCNC(=N)N)C(=O)N1CCC[C@H]1C(=O)N[C@H](C)C(N)=O [Example 18, NAc-D2Nal^1 -D4ClPhe^2 -D3Pal^3 -Ser^4 -NMeTyr^5 -DLys(N-epsilon-Gly-2Furoyl)^6 -Leu^7 -Arg^8 -Pro^9 -DAla^10 NH2] (Ac-[d2Nal][dPhe(4-Cl)][d3Pal]S[NMeY][dK]([Gly-2Furoyl])LRP[dA]-NH2) | 0.00309
7 | CC(=O)N[C@H](Cc1ccc2ccccc2c1)C(=O)N[C@H](Cc1ccc(Cl)cc1)C(=O)N[C@H](Cc1cccnc1)C(=O)N[C@@H](CO)C(=O)N(C)[C@@H](Cc1ccc(O)cc1)C(=O)N[C@H](CCCCNC(=O)CNC(=O)c1ccoc1)C(=O)N[C@@H](CC(C)C)C(=O)N[C@@H](CCCNC(=N)N)C(=O)N1CCC[C@H]1C(=O)N[C@H](C)C(N)=O [Example 51a, NAc-D2Nal^1 -D4ClPhe^2 -D3Pal^3 -Ser^4 -NMeTyr^5 -DLys(N-epsilon-Gly-3-Furoyl)^6 -Leu^7 -Arg^8 -Pro^9 -DAla^1 -NH2] (Ac-[d2Nal][dPhe(4-Cl)][d3Pal]S[NMeY][dK]([Gly-X2])LRP[dA]-NH2) | 0.011
8 | CC(=O)N[C@H](Cc1ccc2ccccc2c1)C(=O)N[C@H](Cc1ccc(Cl)cc1)C(=O)N[C@H](Cc1cccnc1)C(=O)N[C@@H](CO)C(=O)N(C)[C@@H](Cc1ccc(O)cc1)C(=O)N[C@H](CCCCNC(=O)CNC(=O)CNC(=O)c1ccco1)C(=O)N[C@@H](CC(C)C)C(=O)N[C@@H](CCCCNC(C)C)C(=O)N1CCC[C@H]1C(=O)N[C@H](C)C(N)=O [Example 57a, NAcD2Nal^1 -D4ClPhe^2 -D3Pal^3 -Ser^4 -NMeTyr^5 -DLys(N-epsilon-Gly-Gly-furoyl)^6 -Leu^7 -Lys(Isp)^8 -Pro^9 -DAla^10 NH2] (Ac-[d2Nal][dPhe(4-Cl)][d3Pal]S[NMeY][dK]([Gly-Gly-2Furoyl])L[Lys(iPr)]P[dA]-NH2) | 0.0145
9 | CC(=O)N[C@H](Cc1ccc2ccccc2c1)C(=O)N[C@H](Cc1ccc(Cl)cc1)C(=O)N[C@H](Cc1cccnc1)C(=O)N[C@@H](CO)C(=O)N(C)[C@@H](Cc1ccc(O)cc1)C(=O)N[C@H](CCCCNC(=O)NCCCNC(=O)C1=C[C@@H](O)[C@@H](O)[C@H](O)C1)C(=O)N[C@@H](CC(C)C)C(=O)N[C@@H](CCCNC(=N)N)C(=O)N1CCC[C@H]1C(=O)N[C@H](C)C(N)=O [Example 42, NAc-D2Nal^1 -D4ClPhe^2 -D3Pal^3 -Ser^4 -NMeTyr^5 -DLys[N-epsilon-(N'-Carbonyl-Diaminopropane-N"-Shikimyl)]^6 -Leu^7 -Arg^8 -Pro^9 -DAla^10 NH2] (Ac-[d2Nal][dPhe(4-Cl)][d3Pal]S[NMeY][dK]([CO-X5])LRP[dA]-NH2) | 0.0257
10 | CC(=O)N[C@H](Cc1ccc2ccccc2c1)C(=O)N[C@H](Cc1ccc(Cl)cc1)C(=O)N[C@H](Cc1cccnc1)C(=O)N[C@@H](CO)C(=O)N(C)[C@@H](Cc1ccc(O)cc1)C(=O)N[C@H](CCCCNC(=O)[C@@H](CO)NC(=O)c1ccccn1)C(=O)N[C@@H](CC(C)C)C(=O)N[C@@H](CCCNC(=N)N)C(=O)N1CCC[C@H]1C(=O)N[C@H](C)C(N)=O [Example 48b, NAc-D2Nal^1 -D4ClPhe^2 -D3Pal^3 -Ser^4 -NMeTyr^5 -DLys(N-epsilon-D-Ser-Picolinyl)^6 -Leu^7 -Arg^8 -Pro^9 -DAla^10 NH2] (Ac-[d2Nal][dPhe(4-Cl)][d3Pal]S[NMeY][dK]([dS-Picolinoyl])LRP[dA]-NH2) | 0.0372
